# Test results from patent US20050113366A1 (priority 2000, published 2005).
# Structures can show the parent of a compound that is named as a salt. Where two headings read alike, the source gives them in different places.
# Legend:
# GHB receptors = GHB receptors (Rattus norvegicus, UniProt P11275); test: Displacement of 3H-GHB binding on rat brain membranes; design: species or system Wistar rats
# slow wave sleep = test: EEG study of the duration of slow wave sleep in rats after i.p. injection; format: in vivo, Male Wistar rats; conditions: for Duration of slow wave sleep: 3 h EEG recording, mean ± SEM; for Increase of the duration of slow wave sleep: versus NaCl
# Excerpt: Male Wistar rats, weighing 200 g at the beginning of the experiment, coming from the Centre d'Elevage Janvier (Route des Chenes-Secs, Le Genest St-Isle, 53940 France) were used for this study.
# After eight days of adaptation to the breeding conditions at the Animalerie Centrale de la Faculte de Medecine (11, rue Humann 67084 Strasbourg), these animals were placed in individual cages (Makrolon type cages 3H, 425×266×150) in a standard (7 a.m./7 p.m.) day/night rhythm, with water and food (UAR ref. A04) continually available to them. The animals were then transferred to an experimentation facility on supports capable of receiving 24 cages.
# The surgical procedure is the following: after one month of becoming accustomed to the (10 a.m./10 p.m.) day/night cycle, the rats are weighed and then anesthetized with ketamine (Imalgene 500 Merial) at a dose of 150 mg/kg i.p. After having placed the animal in a stereotactic frame (Narishige), a rostrocaudal incision is made using a sterilized scalpel (No. 3 blade, Swann-Morton England).
# The parietal bone sutures, Lambda and Bregma, are exposed serve as stereotactic reference (point 0). After having perforated the cranial casing using a dental drill without infringing on the meninges (Minitor Narishige), two stainless steel screws 500 μm in diameter (Magister, 4 rue du Lac 25130 Villers Le Lac) are implanted at the following coordinates: Bregma AP: ±4 mm and ML: ±3 mm.
# Two copper wires are soldered with tin to the screws, on one hand, and to the female connector, on the other hand (VP Electronic, Square de la Poteme, 91302 Massy Cedex). The assembly which is realized is then covered with a polymerizing resin (Paladur, Kulzer, Germany).
# The implanted rats are then placed in their respective cages. A post-operative period greater than 48 h is complied with before any recording.
# All the EEG recordings are made during the first hours of the dark [sic; light] phase (that is, between 10 a.m. and 1 p.m.), which represents the period of awakening and intense activity of the animals.
# The rats are placed in a cage made of Plexiglas (170×170×300), and after a 30 min period of becoming accustomed to their new environment, they are recorded continuously for a duration of 3 h after i.p. injection (2 mL/kg) of 0.9% NaCl or the ligand to be studied. The EEG graph is made using an 8-track recorder (Alvar Electronic, 6 rue du Progres, 93511-Montreuil) with a running speed of 0.5 cm/s.
# The total durations of slow wave sleep for each animal are evaluated in 20 min sections for the total duration of the 3 h recording (1 cm=2 seconds).
# The statistical comparison is made using an analysis of variance test (Anova) followed by a multiple comparison test. […]
# The numbers in parentheses correspond to the percentages of slow wave sleep with respect to the total duration of sleep.
# [1] = in cats; cited from earlier work
# [2] = read-out: IC50 (concentration displacing 50% of the reversible binding of 3H-GHB), rat brain membranes, potassium phosphate buffer pH 6.0, 30 min in ice
# Chain of GHB receptors (P11275 whole entry): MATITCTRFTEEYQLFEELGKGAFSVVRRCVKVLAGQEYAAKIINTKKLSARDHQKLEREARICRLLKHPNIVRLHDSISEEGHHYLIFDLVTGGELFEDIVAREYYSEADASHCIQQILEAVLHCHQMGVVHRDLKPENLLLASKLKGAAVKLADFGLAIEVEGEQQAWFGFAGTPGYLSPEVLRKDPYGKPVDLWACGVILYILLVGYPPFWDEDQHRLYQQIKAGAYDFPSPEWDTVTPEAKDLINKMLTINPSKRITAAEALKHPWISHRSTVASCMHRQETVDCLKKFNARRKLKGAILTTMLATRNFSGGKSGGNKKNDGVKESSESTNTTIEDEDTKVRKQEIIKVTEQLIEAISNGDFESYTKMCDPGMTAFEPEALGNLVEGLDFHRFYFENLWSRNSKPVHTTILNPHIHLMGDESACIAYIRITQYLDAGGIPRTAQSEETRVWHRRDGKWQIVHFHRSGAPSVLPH
molecule,measurement,setting,value
Sodium salt of 4-hydroxy-4-(phenoxathiin-2 or 3-yl) butanoic acid isomer B [Compound 29],IC50,GHB receptors; [2],900 nM
"O=C(O)CCC(O)c1ccc(Cl)c(Cl)c1 (centres unmarked) [Compound 2, Sodium salt of 4-(3,4 dichlorophenyl)-4-hydroxybutanoic acid]",Percentage of slow wave sleep with respect to the total duration of sleep (in parentheses),slow wave sleep; 0.28 mmol/kg i.p.,23%
same,Duration of slow wave sleep,slow wave sleep; 0.28 mmol/kg i.p.,53 ± 7 min
same,Increase of the duration of slow wave sleep,slow wave sleep; 0.28 mmol/kg i.p.,42 min
"O=C([O-])CCC(O)c1cc2c3c(cccc3c1)CC2.[Na+] (centres unmarked) [Compound 24, Sodium salt of 4-(1,2-dihydroacenaphthylen-4-yl)-4-hydroxybutanoic acid]",IC50,"GHB receptors; affinity for the GHB receptor, repeated in Table 4, read-out: IC50",80 nM
same,IC50,GHB receptors; [2],80 nM
same,Percentage of slow wave sleep with respect to the total duration of sleep (in parentheses),slow wave sleep; 0.15 mmol/kg i.p.,23%
same,Duration of slow wave sleep,slow wave sleep; 0.15 mmol/kg i.p.,53 ± 7 min
same,Increase of the duration of slow wave sleep,slow wave sleep; 0.15 mmol/kg i.p.,42 min
same,Percentage of slow wave sleep with respect to the total duration of sleep (in parentheses),slow wave sleep; 0.28 mmol/kg i.p.,28%
same,Duration of slow wave sleep,slow wave sleep; 0.28 mmol/kg i.p.,61 ± 8 min
same,Increase of the duration of slow wave sleep,slow wave sleep; 0.28 mmol/kg i.p.,50 min
Sodium salt of 4-hydroxy-4-(phenoxathiin-2 or 3-yl)butanoic acid isomer A [Compound 28],IC50,GHB receptors; [2],100 nM
"O=C(O)CCCO [GHB, γ-hydroxybutyrate]",half-life,[1],approximately one
"O=C(O)CCC(O)c1ccc2c(c1)-c1ccccc1C2 (centres unmarked) [Compound 32, Sodium salt of 4-(9H-fluoren-3-yl)hydroxybutanoic acid]",IC50,GHB receptors; [2],300 nM
"CC1(C)Cc2cc(C(O)CCC(=O)O)ccc2NC1=O (centres unmarked) [Compound 40, Sodium salt of 4-(3,3-dimethyl-2-oxo-1,2,3,4-tetrahydroquinolin-6-yl)-4-hydroxybutanoic acid]",IC50,GHB receptors; [2],1100 nM
"Sodium salts of 4-hydroxy-4-(4-oxo-4,5-dihydro-3H-pyridazo(4,5-b)indol-8 and 6-yl)butanoic acids 8/6 isomer mixture [Compound 33]",IC50,GHB receptors; [2],200 nM
